Some results are limits rather than exact numbers.

This is an account of results in patent US20090029983A1, “NOVEL HETEROCYCLIC COMPOUNDS HAVING ANTI-HBV ACTIVITY” (priority 2005, published 2009).

The assay deals with HBV. Nature of the assay: HBV screening assay (viral DNA in baculovirus-HBV transduced HepG2 cells). The settings on record: Hepatitis B virus, HepG2, 72 h, read-out: EC50 (antiviral activity), HBV-transduced HepG2 cells, three days with compound, viral DNA by ELISA. The class given is cell-based. The method, then: HepG2 cells were transduced using a baculovirus to deliver the HBV genome essentially as previously described (Delaney et al. in Hepatology 1998; 28: 1134-1146). Transduced cells were cultured in supplemented EMEM media with 10% fetal bovine serum in a 5% CO2 incubator at 37° C. for three days in the presence of test compounds. The cells were lysed in a buffer containing 0.5% NP-40 and […] proteinase K. A solid-phase hybridization was performed to capture the viral DNA and to label the target DNA with Digoxigenin-labeled DNA probes. The viral DNA was detected by ELISA, using horseradish peroxidase-conjugated anti-digoxigenin antibodies.
The EC50 values were determined using ExcelFit software from the inhibition values of a titration curve for each compound. For CC50 determinations, the same titration of compounds was co-cultured with non-transduced HepG2 for three days under the conditions described above. The Promega CellTiter 96 Aqueous One Solution Cell Proliferation Assay was used to measure cell proliferation/viability. The CC50 values were determined using ExcelFit software from the inhibition values of the titration curve for each compound.
Consider `NC(=O)c1sc2nc3c(c(-c4cccs4)c2c1N)CCC3CC(=O)NCc1ccccn1` (stereo not shown) [Compound 45, 3-Amino-7-{[(pyridin-2-ylmethyl)-carbamoyl]-methyl}-4-thiophen-2-yl-6,7-dihydro-5H-cyclopenta[b]thieno[3,2-e]pyridine-2-carboxylic acid amide], for which the 50% effective concentration (EC50) was above 10 µM.

Regarding `NC(=O)c1sc2nc3c(c(-c4cccs4)c2c1N)CCC3CC(=O)NCCc1ccccn1` (stereo not shown) [Compound 46, 3-Amino-7-[(2-pyridin-2-yl-ethylcarbamoyl)-methyl]-4-thiophen-2-yl-6,7-dihydro-5H-cyclopenta[b]thieno[3,2-e]pyridine-2-carboxylic acid amide], the EC50 is above 10 µM.

In the case of `NC(=O)c1sc2nc3c(c(-c4cccs4)c2c1N)CCC3CC(=O)NCc1ccc(C(F)(F)F)cc1` (stereo not shown) [Compound 47, 3-Amino-4-thiophen-2-yl-7-[(4-trifluoromethyl-benzylcarbamoyl)-methyl]-6,7-dihydro-5H-cyclopenta[b]thieno[3,2-e]pyridine-2-carboxylic acid amide], the EC50 is above 10 µM.

Regarding `CC(C)CCNC(=O)CC1CCc2c1nc1sc(C(N)=O)c(N)c1c2-c1cccs1` (stereo not shown) [Compound 48, 3-Amino-7-[(3-methyl-butylcarbamoyl)-methyl]-4-thiophen-2-yl-6,7-dihydro-5H-cyclopenta[b]thieno[3,2-e]pyridine-2-carboxylic acid amide], the concentration for a half-maximal effect (EC50) was above 10 µM. Take `CN(C)C(=O)CC1CCc2c1nc1sc(C(N)=O)c(N)c1c2-c1cccs1` (stereo not shown) [Compound 49, 3-Amino-7-dimethylcarbamoylmethyl-4-thiophen-2-yl-6,7-dihydro-5H-cyclopenta[b]thieno[3,2-e]pyridine-2-carboxylic acid amide]: the EC50 was above 10 µM. Under `NC(=O)c1sc2nc3c(c(-c4cccs4)c2c1N)CCC3CC(=O)NC1CCC1` (stereo not shown) [Compound 50, 3-Amino-7-cyclobutylcarbamoylmethyl-4-thiophen-2-yl-6,7-dihydro-5H-cyclopenta[b]thieno[3,2-e]pyridine-2-carboxylic acid amide] stands above 10 µM.

Consider `NC(=O)c1sc2nc3c(c(-c4cccs4)c2c1N)CCC3CC(=O)NC1CCCCC1` (stereo not shown) [Compound 51, 3-Amino-7-cyclohexylcarbamoylmethyl-4-thiophen-2-yl-6,7-dihydro-5H-cyclopenta[b]thieno[3,2-e]pyridine-2-carboxylic acid amide], for which the EC50 was above 10 µM. Regarding `NC(=O)c1sc2nc3c(c(-c4cccs4)c2c1N)CCC3CC(=O)N1CCC(O)CC1` (stereo not shown) [Compound 52, 3-Amino-7-[2-(4-hydroxy-piperidin-1-yl)-2-oxo-ethyl]-4-thiophen-2-yl-6,7-dihydro-5H-cyclopenta[b]thieno[3,2-e]pyridine-2-carboxylic acid amide], the EC50 was above 10 µM. `NC(=O)c1sc2nc3c(c(-c4cccs4)c2c1N)CCC3CC(=O)N1CCN(c2ccccn2)CC1` (stereo not shown) [Compound 53, 3-Amino-7-[2-oxo-2-(4-pyridin-2-yl-piperazin-1-yl)-ethyl]-4-thiophen-2-yl-6,7-dihydro-5H-cyclopenta[b]thieno[3,2-e]pyridine-2-carboxylic acid amide]: the EC50 is above 10 µM. Under `CCOC(=O)N1CCC(NC(=O)CC2CCc3c2nc2sc(C(N)=O)c(N)c2c3-c2cccs2)CC1` (stereo not shown) [Compound 54, 4-[2-(3-Amino-2-carbamoyl-4-thiophen-2-yl-6,7-dihydro-5H-cyclopenta[b]thiano[3,2-e]pyridin-7-yl)-acetylamino]-piperidine-1-carboxylic acid ethyl ester] stands above 10 µM; under `CN1CCCC1CCNC(=O)CC1CCc2c1nc1sc(C(N)=O)c(N)c1c2-c1cccs1` (stereo not shown) [Compound 55, 3-Amino-7-{[2-(1-methyl-pyrrolidin-2-yl)-ethylcarbamoyl]-methyl}-4-thiophen-2-yl-6,7-dihydro-5H-cyclopenta[b]thieno[3,2-e]pyridine-2-carboxylic acid amide], above 10 µM; under `CCOC(=O)C1CCN(C(=O)CC2CCc3c2nc2sc(C(N)=O)c(N)c2c3-c2cccs2)CC1` (stereo not shown) [Compound 56, 1-[2-(3-Amino-2-carbamoyl-4-thiophen-2-yl-6,7-dihydro-5H-cyclopenta[b]thieno[3,2-e]pyridin-7-yl)-acetyl]-piperidine-4-carboxylic acid ethyl ester], above 10 µM. In the case of `NC(=O)c1sc2nc3c(c(-c4cccs4)c2c1N)CCC3CC(=O)NCCCN1CCOCC1` (stereo not shown) [Compound 57, 3-Amino-7-[(3-morpholin-4-yl-propylcarbamoyl)-methyl]-4-thiophen-2-yl-6,7-dihydro-5H-cyclopenta[b]thiano[3,2-e]pyridine-2-carboxylic acid amide], the EC50 is above 10 µM. Turning to `CC1CCCCN1CCCNC(=O)CC1CCc2c1nc1sc(C(N)=O)c(N)c1c2-c1cccs1` (stereo not shown) [Compound 58, 3-Amino-7-{[3-(2-methyl-piperidin-1-yl)-propylcarbamoyl]-methyl}-4-thiophen-2-yl-6,7-dihydro-5H-cyclopenta[b]thieno[3,2-e]pyridine-2-carboxylic acid amide], the EC50 is above 10 µM. For the compound `CCCCCCC1CCc2c1nc1sc(C(N)=O)c(N)c1c2-c1cccs1` (stereo not shown) [Compound 59, 3-Amino-7-hexyl-4-thiophen-2-6,7-dihydro-5H-cyclopenta[b]thieno[3,2-e]pyridine-2-carboxylic acid amide], the EC50 was above 10 µM.

As for `CCCCCCCC1CCc2c1nc1sc(C(N)=O)c(N)c1c2-c1cccs1` (stereo not shown) [Compound 60, 3-Amino-7-heptyl-4-thiophen-2-yl-6,7-dihydro-5H-cyclopenta[b]thieno[3,2-e]pyridine-2-carboxylic acid amide], the concentration giving a half-maximal response (EC50) is above 10 µM.

`NC(=O)c1sc2nc3c(c(-c4cccs4)c2c1N)CCC3C1CCCC1` (stereo not shown) [Compound 61, 3-Amino-7-cyclopentyl-4-thiophen-2-yl-6,7-dihydro-5H-cyclopenta[b]thieno[3,2-e]pyridine-2-carboxylic acid amide]: the EC50 lay within 1 to 10 µM. Turning to `N#CCCC1CCCc2c1nc1sc(C(N)=O)c(N)c1c2-c1cccs1` (stereo not shown) [Compound 62, 3-Amino-8-(2-cyano-ethyl)-4-thiophen-2-yl-5,6,7,8-tetrahydro-thieno[2,3-b]quinoline-2-carboxylic acid amide], the concentration giving a half-maximal response (EC50) is above 10 µM.

On to `CC(C)CC1CCCc2c1nc1sc(C(N)=O)c(N)c1c2-c1cccs1` (stereo not shown) [Compound 63, 3-Amino-8-isobutyl-4-thiophen-2-yl-5,6,7,8-tetrahydro-thieno[2,3-b]quinoline-2-carboxylic acid amide], for which the EC50 lay within 1 to 10 µM. With `NC(=O)c1sc2nc3c(c(-c4cccs4)c2c1N)CCCC3Cc1ccccc1` (stereo not shown) [Compound 64, 3-Amino-8-benzyl-4-thiophen-2-yl-5,6,7,8-tetrahydro-thieno[2,3-b]uinoline-2-carboxylic acid amide], the EC50 is above 10 µM. Consider `CCCC1CCCc2c1nc1sc(C(N)=O)c(N)c1c2-c1cccs1` (stereo not shown) [Compound 65, 3-Amino-8-propyl-4-thiophen-2-yl-5,6,7,8-tetrahydro-thieno[2,3-b]quinoline-2-carboxylic acid amide], for which the concentration for a half-maximal effect (EC50) lay within 1 to 10 µM.

Turning to `NC(=O)c1sc2nc3c(c(-c4cccs4)c2c1N)CCCC3c1ccccc1` (stereo not shown) [Compound 66, 3-Amino-8-phenyl-4-thiophen-2-yl-5,6,7,8-tetrahydro-thieno[2,3-b]quinoline-2-carboxylic acid amide], the EC50 fell in the range of 1 to 10 µM.
